Source: patent publication US4473554A, “Bestatin-related compounds as immunopotentiator” (Zaidan Hojin Biseibutsu Kagaku Kenkyu Kai, priority 1982, dated 1984)
Where two headings read alike, the source gives them in different places. Blank lines part the entries; values can stand above or below the compound they belong to.

Key:
[1] = test system: D.T.H. response in mice immunized with sheep red blood cell (SRBC); test: Delayed Type Hypersensitivity (D.T.H.) footpad test in mice immunized with SRBC, Example 2; type: in vivo, mouse; conditions: CDF1 mice, control = 100
Method: This Example describes the tests for evaluation of the immunopotentiating activity of the new compound of this invention.
A suspension of 10^8 sheep red blood cells in 0.05 ml of physiological saline was subcutaneously injected at the time of immunization into the right hind footpad of each CDF1 -mouse under test (female, 8 weeks-aged, 5 mice in each group) to establish D.T.H. Simultaneously to the immunization, […] prepared by dissolving the test compound in physiological saline and then filtering the solution by a micropore filter (pore diameter: 0.22 micrometers). Four days later, 10^8 SRBC were subcutaneously injected into the left […] footpad of each test mouse for elicitation of the D.T.H. response. 24 Hours after the elicitating injection, the increased thickness of the left hind footpad was measured with calipers to estimate the degree of swelling in the footpad. The swelling degree is expressed in term of the values calculated by the equation: [formula] The degree of swelling serves to evaluate the degree of cell-mediated immunity involved. For comparison, a suspension of bestatin dispersed in water was tested in the same way as above.

aminopeptidase B = target: T1, aminopeptidase B (Rattus norvegicus, UniProt O09175); test: aminopeptidase B-inhibiting activity (modified Hopsu method, arginine β-naphthylamide substrate); type: biochemical; conditions: 37° C., pH 7.0, 30 minutes
T1 sequence (O09175 1-650): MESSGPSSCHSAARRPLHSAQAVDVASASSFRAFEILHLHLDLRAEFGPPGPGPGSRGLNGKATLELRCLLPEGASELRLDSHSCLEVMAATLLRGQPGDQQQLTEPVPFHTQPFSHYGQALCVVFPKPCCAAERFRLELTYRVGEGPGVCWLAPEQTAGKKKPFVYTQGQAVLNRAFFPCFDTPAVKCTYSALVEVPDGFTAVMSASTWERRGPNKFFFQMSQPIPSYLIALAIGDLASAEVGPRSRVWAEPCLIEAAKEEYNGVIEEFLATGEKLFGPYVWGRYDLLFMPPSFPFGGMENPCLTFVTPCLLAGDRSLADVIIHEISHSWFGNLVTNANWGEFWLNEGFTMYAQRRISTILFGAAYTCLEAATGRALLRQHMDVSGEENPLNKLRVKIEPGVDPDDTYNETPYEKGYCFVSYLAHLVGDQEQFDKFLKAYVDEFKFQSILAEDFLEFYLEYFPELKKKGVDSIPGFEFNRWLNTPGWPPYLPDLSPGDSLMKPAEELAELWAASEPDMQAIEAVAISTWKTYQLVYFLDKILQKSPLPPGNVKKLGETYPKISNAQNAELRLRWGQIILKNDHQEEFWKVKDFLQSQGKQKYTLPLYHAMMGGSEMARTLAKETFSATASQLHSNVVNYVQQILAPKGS
Method: The aminopeptidase B-inhibiting activity was determined according to a modification of the method of V. K. Hopsu et al. described in the "Archives of Biochemistry and Biophysics" Vol. 114, 557 (1966). Thus, a mixture of 0.8 ml of 0.1 mM of (S)-arginine β-naphthylamide and 1.0 ml of 0.1M Tris-hydrochloride buffer (pH 7.0) was admixed with 0.7 ml of 0.1M Tris-hydrochloride buffer (pH 7.0) containing the test compound and then heated at 37° C. for 3 minutes. […] After the reaction at 37° C. for 30 minutes, the reaction solution was admixed with 0.6 ml of 0.1M acetate buffer (pH 4.2) containing 1.0 mg/ml of diazonium salt of o-aminoazotoluene (Garnet GBC) and 1.0% of a surfactant "Tween" 20 (a registered trademark) to stop the enzymatic reaction and then allowed to stand at ambient temperature for 15 minutes. After this, absorbance (a) at 525 nm of the reaction solution was measured by spectrophotometer. For the control, the above procedure was repeated without the test compound and the adsorbence (b) was measured. Percentages for inhibition to aminopeptidase B were calculated according to the equation: [formula] Inhibition percentages at various concentrations of the test compound were measured, and from the values of inhibition percentages measured 50% Inhibition Concentration (IC50) was evaluated.

ICR-strain mice = test: acute toxicity, intraperitoneal, ICR-strain mice; type: in vivo, mouse; conditions: dosage of 100 mg/kg
Excerpt: In order to estimate the acute toxicity of the compound of the formula (VIII) or (IIId), some of the test compound was intraperitoneally given to ICR-strain mice (in groups each consisting of 6 mice, male, 5 weeks-aged, average body weight 20 g.), when all the tested mice tolerated intraperitoneal administration of (2S,3R)-APHA; (2S)-2-N-[(2'S,3'R)-3'-amino-2'-hydroxy-4'-phenyl-butanoyl]amino-4-methyl- pentanol; (2S)-2-N-[(2'S,3'R)-3'-amino-2'-hydroxy-4'-phenylbutanoyl-(S)-leucyl]amino-4-methyl-pentanol; (2S,3R)-3-amino-2-hydroxy-4-phenylbutanoyl-(S)-leucyl-(S)-leucine; (2S,3R)-3-amino-2-hydroxy-4-phenyl-butanoyl-(S)-leucyl-(S)-arginine; (2S,3R)-3-amino-2-hydroxy-4-phenylbutanoyl-(S)-leucyl-(S)-asparagine; (2R,3R)-3-amino-2-hydroxy-4-phenylbutanoyl-(S)-leucyl-(R)-asparagine; and (2S,3R)-3-amino-2-hydroxy-4-phenylbutanoyl-(S)-leucyl-(R)-arginine at a dosage of 100 mg/kg.

[2] = test system: D.T.H. response in mice immunized with SRBC as antigen; test: D.T.H. footpad test in mice immunized with SRBC, Examples 3-6 (dosages per mouse); type: in vivo; conditions: for enhancement of D.T.H. response / cell-mediated immunity: oral, 10 mcg/mouse or 1 mcg/mouse
Method: The effect of (2S,3R)-AHPA on cell-mediated immunity was tested in the same way in Example 2, namely according to the D.T.H. technique using mice immunized with sheep red blood cell as antigen. Thus, a suspension of 10^8 sheep red blood cells in 0.05 ml of physiological saline were subcutaneously injected at the time of immunization into the right hind footpad of each CDF1 -mouse under test (female, 8 weeks-aged, 5 mice in each group) to establish D.T.H. […] The degree of swelling was evaluated. By way of comparison, bestatin was tested in the same way as above. […] The effect of (2S,3R)-AHPA on the D.T.H. response was estimated in the same manner as in the above procedure (A) of Example 3 by orally administering 1 mcg/mouse, 0.1 mcg/mouse or 0.01 mcg/mouse of (2S,3R)-AHPA to each mouse under test. […] The effect of the mode of administering (2S,3R)-AHPA on the D.T.H. response was estimated in the same manner as in the procedure (A) of Example 3, except that the test compound (as aqueous solution) was injected intraperitoneally in stead of being given orally.

[3] = Table 7, oral 1 mcg/mouse, control = 100
[4] = Table 7, oral 10 mcg/mouse, control = 100
[5] = oral 0.05 mg/kg at immunization

IC50 (aminopeptidase B): 15 µg/mL
Compound: CC(C)C[C@H](NC(=O)[C@@H](O)[C@H](N)Cc1ccccc1)C(=O)N[C@H](CC(C)C)C(=O)O [Compound No. 7, (2S,3R)-3-amino-2-hydroxy-4-phenylbutanoyl-(S)-leucyl-(R)-leucine]
Degree of swelling ([1]; oral 0.5 mg/kg at immunization): 120%

Compound: CC(C)C[C@H](NC(=O)[C@H](CC(C)C)NC(=O)[C@@H](O)[C@H](N)Cc1ccccc1)C(=O)O
acute toxicity: tolerance of intraperitoneal administration (ICR-strain mice): tolerated

Compound: COC(=O)[C@@H](O)[C@H](N)Cc1ccccc1.Cl [(2S,3R)-AHPA methylester hydrochloride]
Increase in thickness of footpad (± S.D.) ([2]; Table 7, oral 1 mcg/mouse): 11.7 ± 1.29 × 0.1 mm
Degree of swelling [2, 3]: 134%
Increase in thickness of footpad (± S.D.) ([2]; Table 7, oral 10 mcg/mouse): 11.5 ± 1.12 × 0.1 mm
Degree of swelling [2, 4]: 132%
enhancement of D.T.H. response / cell-mediated immunity [2]: active substantially as much as the free acid form of (2S,3R)-AHPA

Compound: CC(C)C[C@H](NC(=O)[C@@H](O)[C@H](N)Cc1ccccc1)C(=O)N[C@@H](CCCNC(=N)N)C(=O)O
acute toxicity: tolerance of intraperitoneal administration (ICR-strain mice): tolerated

IC50 (aminopeptidase B): 5.4 µg/mL
Compound: CC(C)C[C@@H](CO)NC(=O)[C@H](CC(C)C)NC(=O)C(O)[C@H](N)Cc1ccccc1 (stereo partly drawn) [Compound No. 4, (2S)-2-N-[(2'S,3'R)-3'-amino-2'-hydroxy-4'-phenylbutanoyl-(S)-leucyl]amino-4-methyl-pentanol]
Degree of swelling ([1]; oral 0.5 mg/kg at immunization): 103%

solubility in water (solubility in water): soluble in water
Compound: N[C@H](Cc1ccccc1)[C@@H](O)C(=O)O [(2R,3R)-AHPA]
Degree of swelling ([2]; Table 6, oral 1 mcg/mouse): 135%
Increased in thickness of footpad (± S.D.) ([2]; Table 6, oral 1 mcg/mouse): 11.9 ± 0.74 × 0.1 mm
Increased in thickness of footpad (± S.D.) ([2]; Table 6, oral 10 mcg/mouse): 9.6 ± 0.65 × 0.1 mm

Compound: N[C@@H](Cc1ccccc1)[C@@H](O)C(=O)O [(2R,3S)-AHPA]
Degree of swelling ([2]; Table 6, oral 1 mcg/mouse): 133%
Increased in thickness of footpad (± S.D.) ([2]; Table 6, oral 1 mcg/mouse): 11.7 ± 1.15 × 0.1 mm
Degree of swelling ([2]; Table 6, oral 10 mcg/mouse): 120%
Increased in thickness of footpad (± S.D.) ([2]; Table 6, oral 10 mcg/mouse): 10.6 ± 0.97 × 0.1 mm

IC50 (aminopeptidase B): 48.9 µg/mL
solubility in water (solubility in water): soluble in water
Compound: CC(=O)N[C@H](Cc1ccccc1)[C@H](O)C(=O)N[C@H](CO)CC(C)C [Compound No. 3, (2S)-2-N-[(2'S,3'R)-3'-N-acetylamino-2'-hydroxy-4'-phenylbutanoyl]amino-4-methyl-pentanol]
Degree of swelling [1, 5]: 124%
Degree of swelling ([1]; oral 0.5 mg/kg at immunization): 131%

Compound: N[C@@H](Cc1ccccc1)[C@H](O)C(=O)O [(2S,3S)-AHPA]
Degree of swelling ([2]; Table 6, oral 1 mcg/mouse): 111%
Degree of swelling ([2]; Table 6, oral 10 mcg/mouse): 135%
Increased in thickness of footpad (± S.D.) ([2]; Table 6, oral 10 mcg/mouse): 11.9 ± 1.36 × 0.1 mm

solubility in water (solubility in water): soluble in water
Compound: N[C@H](Cc1ccc(O)cc1)[C@H](O)C(=O)O [(2S,3R)-p-OH-AHPA, (2S,3R)-3-amino-2-hydroxy-4-p-hydroxyphenylbutanoic acid]
Increase in thickness of footpad (+ S.D.) ([2]; Table 8, oral 1 mcg/mouse): 9.7 ± 0.54 × 0.1 mm
Degree of swelling ([2]; Table 8, oral 1 mcg/mouse, control = 100): 114%
Increase in thickness of footpad (+ S.D.) ([2]; Table 8, oral 10 mcg/mouse): 11.0 ± 1.75 × 0.1 mm
Degree of swelling ([2]; Table 8, oral 10 mcg/mouse, control = 100): 129%
enhancement of D.T.H. response / cell-mediated immunity [2]: enhances likewise the cell-mediatedimmunity

IC50 (aminopeptidase B): 53 µg/mL
Compound: CC(C)C[C@H](NC(=O)C(O)[C@H](N)Cc1ccccc1)C(=O)N[C@H](Cc1ccccc1)[C@H](O)C(=O)O (stereo partly drawn) [Compound No. 8, (3R)-N-[(2'S,3'R)-3'-amino-2'-hydroxy-4'-phenylbutanoyl-(S)-leucyl]amino-(2S)-2-hydroxy-4-phenylbutanoic acid]

Compound: CC(C)C[C@@H](CO)NC(=O)[C@H](CC(C)C)NC(=O)[C@@H](O)[C@H](N)Cc1ccccc1
acute toxicity: tolerance of intraperitoneal administration (ICR-strain mice): tolerated

Compound: CC(C)C[C@H](NC(=O)[C@@H](O)[C@H](N)Cc1ccccc1)C(=O)N[C@@H](CC(N)=O)C(=O)O
acute toxicity: tolerance of intraperitoneal administration (ICR-strain mice): tolerated

Compound: CC(C)C[C@@H](CO)NC(=O)[C@@H](O)[C@H](N)Cc1ccccc1 [Compound No. 2, (2S)-2-N-[(2'S,3'R)-3'-amino-2'-hydroxy-4'-phenylbutanoyl]amino-4-methyl-pentanol]
Degree of swelling [1, 5]: 106%
Degree of swelling ([1]; oral 0.5 mg/kg at immunization): 126%
IC50 (aminopeptidase B): 0.65 µg/mL
acute toxicity: tolerance of intraperitoneal administration (ICR-strain mice): tolerated

Compound: NC(=O)[C@@H](O)[C@H](N)Cc1ccccc1 [(2S,3R)-AHPA amide]
Increase in thickness of footpad (± S.D.) ([2]; Table 7, oral 1 mcg/mouse): 9.8 ± 0.82 × 0.1 mm
Degree of swelling [2, 3]: 111%
Increase in thickness of footpad (± S.D.) ([2]; Table 7, oral 10 mcg/mouse): 11.5 ± 1.20 × 0.1 mm
Degree of swelling [2, 4]: 131%

solubility in water (solubility in water): soluble in water
Compound: NC(=O)[C@H](O)[C@H](N)Cc1ccccc1 [(2R,3R)-AHPA amide]

Compound: Cl.N[C@H](Cc1ccccc1)[C@H](O)CO [Compound No. 1, (2S,3R)-3-amino-2-hydroxy-4-phenyl-1-butanol-hydrochloride]
Degree of swelling [1, 5]: 123%
Degree of swelling ([1]; oral 0.5 mg/kg at immunization): 129%
IC50 (aminopeptidase B; read-out: IC50): > 230 µM
solubility in water (solubility in water): soluble in water
